Laboratory results as given in US6869913B1, “Pyridazin-3-one derivatives, their use and intermediates for their production” (Sumitomo Chemical Company, Limited, priority 1995, dated 2005).

Columns and labels:
Type in all cases: in vivo
[1] = test system: entireleaf morningglory (Ipomoea hederacea var. integriuscula); experiment: Test Example 1: foliar treatment on upland fields; conditions: 500 g/ha active ingredient; foliar spray; examined 19 days after application
Method: (§1) Cylindrical plastic pots of 10 cm in diameter and 10 cm in depth were filled with soil, in which the seeds of […] (Ipomoea hederacea var. integriuscula) and velvetleaf (Abutilon theophrash) were sowed, and the test plants were grown in a greenhouse for 19 days. Each of the test compounds listed below was formulated into an emulsifiable concentrate according to Formulation Example 2, which was diluted with water containing a spreading agent to a prescribed concentration. The dilution was uniformly sprayed over the foliage of the test plants with a sprayer at a volume of 1000 liters per hectare. After the application, the test plants were grown in the greenhouse for 19 days, and the herbicidal activity was examined.

[2] = test system: velvetleaf (Abutilon theophrash); experiment: Test Example 1: foliar treatment on upland fields; conditions: 500 g/ha active ingredient; foliar spray; examined 19 days after application
Method: as §1

[3] = test system: entireleaf morningglory (Ipomoea hederacea var. integriuscula); experiment: Test Example 3: soil surface treatment on upland fields; conditions: 500 g/ha active ingredient; soil surface spray; examined after 19 days
Method: (§2) Cylindrical plastic pots of 10 cm in diameter and […] in depth were filled with soil, in which the seeds of […] (Ipomoea hederacea var. integriuscula) and velvetleaf (Abutilon theophrash) were sowed. Each of the test compounds listed below was formulated into an emulsifiable concentrate according to Formulation Example 2, which was diluted with water to a prescribed concentration. The dilution was uniformly sprayed over the soil surface in the pots with a sprayer at a volume of 1000 liters per hectare. After the application, the test plants were grown in a greenhouse for 19 days, and the herbicidal activity was examined.

[4] = test system: velvetleaf (Abutilon theophrash); experiment: as above; conditions: 500 g/ha active ingredient; soil surface spray; examined after 19 days
Method: as §2

[5] = test system: barnyardgrass (Echinochloa oryzicola); experiment: Test Example 4: flooding treatment on paddy fields; conditions: application amount of active ingredient 250 g/ha, examined 19 days after application, index 0 to 5
Method: Cylindrical plastic pots of 9 cm in diameter and 11 cm in depth were filled with soil, in which the seeds of barnyardgrass (Echinochloa oryzicola) were sowed. These pots were flooded to form a paddy field, and the test plants were grown in a greenhouse for 7 days. Each of the test compounds listed below was formulated into an emulsifiable concentrate according to Formulation Example 2, which was diluted with water to a prescribed concentration. The dilution was applied to the water surface in the pots at a volume of 50 liters per hectare. After the application, the test plants were grown in the greenhouse for 19 days, and the herbicidal activity was examined.

[6] = test system: barnyardgrass (Echinochloa crus-galli); experiment: Test Example 2: foliar treatment on upland fields; set-up: key: rating; 4–5 = excellent activity, 3 or lower = insufficient; conditions: 32 g/ha active ingredient; foliar spray; examined 19 days after application
Description: (§3) The herbicidal activity is excellent when rated at “4” or “5” but insufficient when rated at “3” or lower. The phytotoxicity is no problematic on practical use when rated at “0” or “1” but not allowed when rated at “2” or higher.
(§4) Cylindrical plastic pots of 10 cm in diameter and 10 cm in depth were filled with soil, in which the seeds of barnyardgrass (Echinochloa crus-galli), entireleaf morningglory (Ipomoea hederacea var. integriuscula) and velvetleaf (Abutilon theophrash) were sowed, and the test plants were grown in a greenhouse for 19 days. Each of the test compounds listed below was formulated into an emulsifiable concentrate according to Formulation Example 2, which was diluted with water containing a spreading agent to a prescribed concentration. The dilution was uniformly sprayed over the foliage of the test plants with a sprayer at a volume of 1000 liters per hectare. After the application, the test plants were grown in the greenhouse for 19 days, and the herbicidal activity was examined.

[7] = test system: entireleaf morningglory (Ipomoea hederacea var. integriuscula); experiment: Test Example 2: foliar treatment on upland fields; set-up: key: rating; 4–5 = excellent activity, 3 or lower = insufficient; conditions: 32 g/ha active ingredient; foliar spray; examined 19 days after application
Description: as §3, §4

[8] = test system: velvetleaf (Abutilon theophrash); experiment: Test Example 2: foliar treatment on upland fields; set-up: key: rating; 4–5 = excellent activity, 3 or lower = insufficient; conditions: 32 g/ha active ingredient; foliar spray; examined 19 days after application
Description: as §3, §4

O=c1cc(C(F)(F)F)cnn1-c1ccc(Cl)cc1 [Compound 1-332, 2-(4-chlorophenyl)-5-trifluoromethylpyridazin-3-one]
5: Herbicidal activity Entireleaf morningglory [1] | Herbicidal activity Velvetleaf [2] | Herbicidal activity Entireleaf morningglory [3] | Herbicidal activity Velvetleaf [4] | Herbicidal activity Barnyardgrass [5]

Cc1c(C(F)(F)F)cnn(-c2cc(NS(C)(=O)=O)c(Cl)cc2F)c1=O [Compound 1-367, N-[2-chloro-4-fluoro-5-(4-methyl-5-trifluoromethyl-3-pyridazinon-2-yl)phenyl]methanesulfonamide]
5: Herbicidal activity Entireleaf morningglory [1] | Herbicidal activity Velvetleaf [2] | Herbicidal activity Entireleaf morningglory [3] | Herbicidal activity Velvetleaf [4] | Herbicidal activity Barnyardgrass [5]

Cc1c(C(F)(F)F)cnn(-c2cc(NS(=O)(=O)CCl)c(Cl)cc2F)c1=O [Compound 1-369, N-{2-chloro-4-fluoro-5-(4-methyl-5-trifluoromethyl-3-pyridazinon-2-yl)phenyl}chloromethanesulfonamide]
5: Herbicidal activity Entireleaf morningglory [1] | Herbicidal activity Velvetleaf [2] | Herbicidal activity Barnyardgrass [6] | Herbicidal activity Entireleaf morningglory [7] | Herbicidal activity Velvetleaf [8] | Herbicidal activity Entireleaf morningglory [3] | Herbicidal activity Velvetleaf [4] | Herbicidal activity Barnyardgrass [5]

Cc1c(C(F)(F)F)cnn(-c2cc(O)c(Cl)cc2F)c1=O [Compound 1-391, 2-[2-fluoro-4-chloro-5-hydroxyphenyl]4-methyl-5-trifluoromethylpyridazin-3-one]
5: Herbicidal activity Entireleaf morningglory [1] | Herbicidal activity Velvetleaf [2] | Herbicidal activity Entireleaf morningglory [3] | Herbicidal activity Velvetleaf [4] | Herbicidal activity Barnyardgrass [5]

CCOC(=O)C(C)Nc1cc(-n2ncc(C(F)(F)F)c(C)c2=O)c(F)cc1Cl (centres unmarked) [Compound 1-420, Ethyl 2-{2-chloro-4-fluoro-5-(4-methyl-5-trifluoromethyl-3-pyridazinon-2-yl)phenylamino}propionate]
5: Herbicidal activity Entireleaf morningglory [1] | Herbicidal activity Velvetleaf [2] | Herbicidal activity Barnyardgrass [6] | Herbicidal activity Entireleaf morningglory [7] | Herbicidal activity Velvetleaf [8] | Herbicidal activity Entireleaf morningglory [3] | Herbicidal activity Velvetleaf [4] | Herbicidal activity Barnyardgrass [5]

Cc1c(C(F)(F)F)cnn(-c2cc(OC(C)C)c(Cl)cc2F)c1=O [Compound 1-476, 2-[2-fluoro-4-chloro-5-isopropoxyphenyl]4-methyl-5-trifluoromethylpyridazin-3-one]
5: Herbicidal activity Entireleaf morningglory [1] | Herbicidal activity Velvetleaf [2] | Herbicidal activity Entireleaf morningglory [3] | Herbicidal activity Velvetleaf [4] | Herbicidal activity Barnyardgrass [5]

COC(=O)C(C)Sc1cc(-n2ncc(C(F)(F)F)cc2=O)c(F)cc1Cl (centres unmarked) [Compound 1-1221, Methyl 2-{2-chloro-4-fluoro-5-(5-trifluoromethyl-3-pyridazinon-2-yl)phenylthio}propionate]
5: Herbicidal activity Entireleaf morningglory [1] | Herbicidal activity Velvetleaf [2] | Herbicidal activity Barnyardgrass [6] | Herbicidal activity Entireleaf morningglory [7] | Herbicidal activity Velvetleaf [8] | Herbicidal activity Entireleaf morningglory [3] | Herbicidal activity Velvetleaf [4] | Herbicidal activity Barnyardgrass [5]

CCOC(=O)C(C)Sc1cc(-n2ncc(C(F)(F)F)cc2=O)c(F)cc1Cl (centres unmarked) [Compound 1-1222, Ethyl 2-{2-chloro-4-fluoro-5-(5-trifluoromethyl-3-pyridazinon-2-yl)phenylthio}propionate]
5: Herbicidal activity Entireleaf morningglory [1] | Herbicidal activity Velvetleaf [2] | Herbicidal activity Barnyardgrass [6] | Herbicidal activity Entireleaf morningglory [7] | Herbicidal activity Velvetleaf [8] | Herbicidal activity Entireleaf morningglory [3] | Herbicidal activity Velvetleaf [4] | Herbicidal activity Barnyardgrass [5]

Cc1c(C(F)(F)F)cnn(-c2cc(OC(C)C)c(Br)cc2F)c1=O [Compound 1-1783, 2-(4-bromo-2-fluoro-5-isopropyloxyphenyl)-4-methyl-5-trifluoromethylpyridazin-3-one]
5: Herbicidal activity Entireleaf morningglory [1] | Herbicidal activity Velvetleaf [2] | Herbicidal activity Barnyardgrass [6] | Herbicidal activity Entireleaf morningglory [7] | Herbicidal activity Velvetleaf [8] | Herbicidal activity Entireleaf morningglory [3] | Herbicidal activity Velvetleaf [4] | Herbicidal activity Barnyardgrass [5]

C#CCN1C(=O)COc2cc(F)c(-n3ncc(C(F)(F)F)c(C)c3=O)cc21 [Compound 2-251, 7-Fluoro-6-(4-methyl-5-trifluoromethyl-3-pyridazinon-2-yl)-4-propargyl-2H-1,4-benzoxazin-3-one]
5: Herbicidal activity Entireleaf morningglory [1] | Herbicidal activity Velvetleaf [2] | Herbicidal activity Barnyardgrass [6] | Herbicidal activity Entireleaf morningglory [7] | Herbicidal activity Velvetleaf [8] | Herbicidal activity Entireleaf morningglory [3] | Herbicidal activity Velvetleaf [4] | Herbicidal activity Barnyardgrass [5]

CCC(C)n1c(=O)sc2cc(F)c(-n3ncc(C(F)(F)F)c(C)c3=O)cc21 (centres unmarked) [Compound 2-328]
5: Herbicidal activity Entireleaf morningglory [1] | Herbicidal activity Velvetleaf [2] | Herbicidal activity Entireleaf morningglory [3] | Herbicidal activity Velvetleaf [4] | Herbicidal activity Barnyardgrass [5]

C#CCN1C(=O)COc2cc(F)c(-n3nc(C)c(C(F)(F)F)cc3=O)cc21 [Compound 2-821, 7-fluoro-6-(6-methyl-5-trifluoromethyl-3-pyridazinon-2-yl)-4-propargyl-2H-1,4-benzoxazin-3-one]
5: Herbicidal activity Entireleaf morningglory [1] | Herbicidal activity Velvetleaf [2] | Herbicidal activity Barnyardgrass [6] | Herbicidal activity Entireleaf morningglory [7] | Herbicidal activity Velvetleaf [8] | Herbicidal activity Entireleaf morningglory [3] | Herbicidal activity Velvetleaf [4] | Herbicidal activity Barnyardgrass [5]

Cc1cc2c(-n3ncc(C(F)(F)F)c(C)c3=O)c(F)cc(Cl)c2o1 [Compound 3-139]
5: Herbicidal activity Entireleaf morningglory [1] | Herbicidal activity Velvetleaf [2] | Herbicidal activity Barnyardgrass [5]

COC(=O)C1(C)Cc2c(c(Cl)cc(F)c2-n2ncc(C(F)(F)F)c(C)c2=O)O1 (centres unmarked) [Compound 4-434]
5: Herbicidal activity Entireleaf morningglory [1] | Herbicidal activity Velvetleaf [2] | Herbicidal activity Barnyardgrass [6] | Herbicidal activity Entireleaf morningglory [7] | Herbicidal activity Velvetleaf [8] | Herbicidal activity Entireleaf morningglory [3] | Herbicidal activity Velvetleaf [4] | Herbicidal activity Barnyardgrass [5]

Cc1c(C(F)(F)F)cnn(-c2c(F)cc(Cl)c3c2CC(C)(C)O3)c1=O [Compound 4-451]
5: Herbicidal activity Entireleaf morningglory [1] | Herbicidal activity Velvetleaf [2] | Herbicidal activity Barnyardgrass [5]
